Laboratory results taken from paper PMC5672931 (British Journal of Cancer, 2017).
“And” between values parts separate entries of the source, which are not always exact repeats. Identical values can stand only once.

How the values were obtained:
[1] = system: PHA-stimulated lymphocytes in whole blood; test: ex vivo lymphocyte stimulation assay; assay type: cell-based, human
[2] = system: Rb phosphorylation and other CDK targets in metastatic melanoma biopsies; test: CDK targets in paired tumour biopsies; assay type: in vivo, human; conditions: three patients with metastatic melanoma
[3] = system: patients with solid tumours; conditions: weekly study; ref Nemunaitis et al, 2013; cited from earlier work
CDK12 = conditions: ref Johnson et al, 2016; cited from earlier work
[4] = coadministration with aprepitant; ref Zhang et al, 2012; cited from earlier work
[5] = system: patients with advanced malignancies; test: phase 1 dose escalation: MAD, RP2D and dose-limiting toxicities; assay type: in vivo, human
[6] = system: patients with advanced malignancies; test: safety and tolerability: adverse events; assay type: in vivo, human; conditions: for Diarrhoea / Fatigue / Nausea / Neutropenia / Vomiting / Abdominal pain / Alopecia / Anaemia / Decreased appetite / Dehydration / Dizziness / Febrile neutropenia / Headache / Hyperbilirubinemia / Hyperglycaemia / Hyperuricemia / Hypotension / Increased ALT / Increased AST / Increased alkaline phosphatase / Leukopenia / Pancytopenia / Thrombocytopenia / Bacterial sepsis: treatment-related
[7] = 2-h infusion at RP2D 50 mg m^−2, fifteen patients, all grades
[8] = 8- and 24-h infusion n=26, all grades
[9] = 8- and 24-h infusion n=26, grade 3–4
[10] = 8-h infusions, 16 patients, all grades
[11] = 8-h infusions, 16 patients, grade 3 or 4
[12] = 24-h infusions, 10 patients, all grades

In the case of `CCc1cnn2c(NCc3ccc[n+]([O-])c3)cc(N3CCCC[C@H]3CCO)nc12` [dinaciclib, Dinaciclib], the “dose achieving reductions to <5% BrdU incorporation” value ([1]; 2-h infusions) is reported as at least 7.4 mg m^−2, the “dose reproducibly achieving a sustained PD effect through 8 h” value ([1]; 2-h infusions) is reported as at least 29.6 mg m^−2 and the “plasma concentration at which reductions to <5% BrdU incorporation were observed” value ([1]; 2-h infusions) is reported as about 200 ng/mL. For the same compound, the “dose achieving suppression of lymphocyte proliferation” value ([1]; 8-h infusions) was at least 7.4 mg m^−2, the “patients with pharmacodynamic reductions in BrdU incorporation” value ([1]; part 1, 2-h infusions) was 24 of 35 and the “patients with reduction of PHA-stimulated BrdU incorporation to <5% at at least one post-dose time point” value ([1]; part 1, of the 24 patients with reductions) was 23. For the same compound, the “expression of Rb phosphorylated at S795” value [2] was “reduced expression”, the “expression of Rb phosphorylated at T356” value [2] was “reduced expression” and the “expression of Rb phosphorylated at other sites and of total Rb” value [2] was “overall preserved expression”. The “increases in p27^Kip1 and p53 post-treatment” value [2] was “occurred in two samples”, the “subjects with grade ⩾3 neutropenia” value [3] was 10% and the CDK12 inhibition (CDK12) was “CDK12 inhibition by dinaciclib has also been demonstrated”. The “effect of aprepitant on dinaciclib PK parameters” value [4] was “does not significantly alter dinaciclib PK parameters”, the “recommended phase 2 dose (RP2D)” value ([5]; 2-h i.v. infusion every 21 days) was 50 mg m^−2 and the “maximum administered dose (MAD)” value ([5]; 2-h infusion) was 58 mg m^−2. For the same compound, the “No of subjects with DLT in cycle 1” value ([5]; 2-hour infusion, 50 mg/m2 (RP2D), 15 subjects treated) was 4 of 15, the “recommended phase 2 dose (RP2D)” value ([5]; 8-h i.v. infusion every 3 weeks) was 7.4 mg m^−2 and the “recommended phase 2 dose (RP2D) / highest safe dose” value ([5]; 24-h i.v. infusion every 3 weeks) was 10.4 mg m^−2. The “deaths before study treatment was discontinued” value ([6]; one of gram-negative sepsis (29.6 mg m^−2, part 1), others related to progressive disease) was “Eight”, the SAE bacterial sepsis ([6]; part 1) was 2 (6%) n (%) and the SAE febrile neutropenia ([6]; part 1) was 2 (6%) n (%). The SAE hyperbilirubinemia ([6]; part 1) was 3 (8%) n (%), the SAE hypotension ([6]; part 1) was 3 (8%) n (%) and the “SAE increased AST” value ([6]; part 1) was 2 (6%) n (%). The SAE neutropenia ([6]; part 1) was 4 (11%) n (%), the SAE febrile neutropenia ([6]; part 2) was 2 (8%) n (%) and the SAE hypotension ([6]; part 2) was 3 (12%) n (%). For the same compound, the SAE neutropenia ([6]; part 2) was 2 (8%) n (%), the “patients with serious AEs (SAEs)” value ([6]; part 2 (8- and 24-h infusions)) was 10 (38%) n (%) and the Diarrhoea [6, 7] was 8 (53%) n (%). For the same compound, the Fatigue [6, 7] was 9 (60%) n (%), the Nausea [6, 7] was 12 (80%) n (%) and the Neutropenia [6, 7] was 9 (60%) n (%). For the same compound, the Vomiting [6, 7] was 11 (73%) n (%), the Abdominal pain ([6]; 2-h infusion n=35, all grades) was 2 (6) n (%) and the Alopecia ([6]; 2-h infusion n=35, all grades) was 4 (11) n (%). The Anaemia ([6]; 2-h infusion n=35, all grades) was 4 (11) n (%), the Decreased appetite ([6]; 2-h infusion n=35, all grades) was 5 (14) n (%) and the Dehydration ([6]; 2-h infusion n=35, all grades) was 3 (9) n (%). The Diarrhoea ([6]; 2-h infusion n=35, all grades) was 16 (46%) n (%) and 16 (46) n (%), the Dizziness ([6]; 2-h infusion n=35, all grades) was 3 (9) n (%) and the Fatigue ([6]; 2-h infusion n=35, all grades) was 13 (37%) n (%) and 13 (37) n (%). For the same compound, the Febrile neutropenia ([6]; 2-h infusion n=35, all grades) was 2 (6) n (%), the Headache ([6]; 2-h infusion n=35, all grades) was 4 (11) n (%) and the Hyperbilirubinemia ([6]; 2-h infusion n=35, all grades) was 3 (9) n (%). For the same compound, the Hyperglycaemia ([6]; 2-h infusion n=35, all grades) was 1 (3) n (%), the Hyperuricemia ([6]; 2-h infusion n=35, all grades) was 2 (6) n (%) and the Hypotension ([6]; 2-h infusion n=35, all grades) was 3 (9) n (%). The “Increased ALT” value ([6]; 2-h infusion n=35, all grades) was 4 (11) n (%), the “Increased AST” value ([6]; 2-h infusion n=35, all grades) was 6 (17) n (%) and the Increased alkaline phosphatase ([6]; 2-h infusion n=35, all grades) was 1 (3) n (%). The Leukopenia ([6]; 2-h infusion n=35, all grades) was 8 (23) n (%), the Nausea ([6]; 2-h infusion n=35, all grades) was 23 (66%) n (%) and 23 (66) n (%) and the Neutropenia ([6]; 2-h infusion n=35, all grades) was 18 (51%) n (%) and 18 (51) n (%). For the same compound, the Pancytopenia ([6]; 2-h infusion n=35, all grades) was 1 (3) n (%), the Thrombocytopenia ([6]; 2-h infusion n=35, all grades) was 1 (3) n (%) and the Vomiting ([6]; 2-h infusion n=35, all grades) was 23 (66%) n (%) and 23 (66) n (%). The Abdominal pain ([6]; 2-h infusion n=35, grade 3–4) was 0 n (%), the Alopecia ([6]; 2-h infusion n=35, grade 3–4) was 0 n (%) and the Anaemia ([6]; 2-h infusion n=35, grade 3–4) was 0 n (%). The Decreased appetite ([6]; 2-h infusion n=35, grade 3–4) was 0 n (%), the Dehydration ([6]; 2-h infusion n=35, grade 3–4) was 1 (3) n (%) and the Diarrhoea ([6]; 2-h infusion n=35, grade 3–4) was 0 n (%). The Dizziness ([6]; 2-h infusion n=35, grade 3–4) was 0 n (%), the Fatigue ([6]; 2-h infusion n=35, grade 3–4) was 0 n (%) and the Febrile neutropenia ([6]; 2-h infusion n=35, grade 3–4) was 2 (6%) n (%) and 2 (6) n (%). The Headache ([6]; 2-h infusion n=35, grade 3–4) was 0 n (%), the Hyperbilirubinemia ([6]; 2-h infusion n=35, grade 3–4) was 0 n (%) and the Hyperglycaemia ([6]; 2-h infusion n=35, grade 3–4) was 1 (3) n (%). The Hyperuricemia ([6]; 2-h infusion n=35, grade 3–4) was 2 (6%) n (%) and 2 (6) n (%), the Hypotension ([6]; 2-h infusion n=35, grade 3–4) was 1 (3) n (%) and the “Increased ALT” value ([6]; 2-h infusion n=35, grade 3–4) was 2 (6%) n (%) and 2 (6) n (%). For the same compound, the “Increased AST” value ([6]; 2-h infusion n=35, grade 3–4) was 3 (9%) n (%) and 3 (9) n (%), the Increased alkaline phosphatase ([6]; 2-h infusion n=35, grade 3–4) was 1 (3) n (%) and the Leukopenia ([6]; 2-h infusion n=35, grade 3–4) was 6 (17%) n (%) and 6 (17) n (%). For the same compound, the Nausea ([6]; 2-h infusion n=35, grade 3–4) was 0 n (%), the Neutropenia ([6]; 2-h infusion n=35, grade 3–4) was 16 (46%) n (%) and 16 (46) n (%) and the Pancytopenia ([6]; 2-h infusion n=35, grade 3–4) was 1 (3) n (%). For the same compound, the Thrombocytopenia ([6]; 2-h infusion n=35, grade 3–4) was 1 (3) n (%), the Vomiting ([6]; 2-h infusion n=35, grade 3–4) was 1 (3) n (%) and the Abdominal pain [6, 8] was 1 (4) n (%). For the same compound, the Alopecia [6, 8] was 2 (8) n (%), the Anaemia [6, 8] was 3 (12) n (%) and the Bacterial sepsis [6, 8] was 1 (4) n (%). The Decreased appetite [6, 8] was 2 (8) n (%), the Dehydration [6, 8] was 2 (8) n (%) and the Diarrhoea [6, 8] was 7 (27) n (%). The Dizziness [6, 8] was 2 (8) n (%), the Fatigue [6, 8] was 10 (38) n (%) and the Febrile neutropenia [6, 8] was 2 (8) n (%). For the same compound, the Headache [6, 8] was 0 n (%), the Hyperbilirubinemia [6, 8] was 1 (4) n (%) and the Hyperglycaemia [6, 8] was 0 n (%). For the same compound, the Hyperuricemia [6, 8] was 0 n (%), the Hypotension [6, 8] was 5 (19) n (%) and the “Increased ALT” value [6, 8] was 1 (4) n (%). The “Increased AST” value [6, 8] was 2 (8) n (%), the Increased alkaline phosphatase [6, 8] was 3 (12) n (%) and the Leukopenia [6, 8] was 0 n (%). For the same compound, the Nausea [6, 8] was 9 (35) n (%), the Neutropenia [6, 8] was 7 (27) n (%) and the Pancytopenia [6, 8] was 0 n (%). For the same compound, the Thrombocytopenia [6, 8] was 1 (4) n (%), the Vomiting [6, 8] was 7 (27) n (%) and the Abdominal pain [6, 9] was 1 (4) n (%). The Alopecia [6, 9] was 0 n (%), the Anaemia [6, 9] was 0 n (%) and the Bacterial sepsis [6, 9] was 1 (4) n (%). For the same compound, the Decreased appetite [6, 9] was 0 n (%), the Dehydration [6, 9] was 0 n (%) and the Diarrhoea [6, 9] was 0 n (%). The Dizziness [6, 9] was 0 n (%), the Fatigue [6, 9] was 2 (8) n (%) and the Febrile neutropenia [6, 9] was 2 (8) n (%). The Headache [6, 9] was 0 n (%), the Hyperbilirubinemia [6, 9] was 1 (4) n (%) and the Hyperglycaemia [6, 9] was 0 n (%). The Hyperuricemia [6, 9] was 0 n (%), the Hypotension [6, 9] was 2 (8) n (%) and the “Increased ALT” value [6, 9] was 0 n (%). The “Increased AST” value [6, 9] was 1 (4) n (%), the Increased alkaline phosphatase [6, 9] was 2 (8) n (%) and the Leukopenia [6, 9] was 0 n (%). For the same compound, the Nausea [6, 9] was 0 n (%), the Neutropenia [6, 9] was 6 (23) n (%) and the Pancytopenia [6, 9] was 0 n (%). The Thrombocytopenia [6, 9] was 0 n (%), the Vomiting [6, 9] was 0 n (%) and the Diarrhoea [6, 10] was 7 (44%) n (%). For the same compound, the Fatigue [6, 10] was 8 (50%) n (%), the Nausea [6, 10] was 7 (44%) n (%) and the Neutropenia [6, 10] was 7 (44%) n (%). The Vomiting [6, 10] was 6 (38%) n (%), the Febrile neutropenia [6, 11] was 2 (13%) n (%) and the Hypotension [6, 11] was 2 (13%) n (%). The Neutropenia [6, 11] was 6 (38%) n (%), the Fatigue [6, 12] was 2 (20%) n (%) and the “Increased AST” value [6, 12] was 2 (20%) n (%). The Increased alkaline phosphatase [6, 12] was 2 (20%) n (%), the Nausea [6, 12] was 2 (20%) n (%) and the Fatigue ([6]; 24-h infusions, 10 patients, grade 3 or 4) was 2 (20%) n (%).
